Laboratory results taken from article PMC6882468 (Journal of Enzyme Inhibition and Medicinal Chemistry, 2019).

Columns and labels:
[1] = test system: ERK phosphorylation in RAW264.7 cells; assay: Western blot of LPS-induced ERK phosphorylation; format: cell-based, Murine; settings: RAW264.7, 5, 10, 20 μM, LPS 200 ng/mL
Experimental: (§1) The cell in 96-well plates were treated as described above and then stimulated with LPS (200 ng/mL) for 24 h. The cells were harvested and lysed in an extraction lysis buffer (Beyotime Biotechnology, Shanghai, China) containing protease inhibitors. The protein concentration was determined using a BCA protein assay kit (Thermo Scientific, 23227). The whole cell lysates were separated by 10% sodium dodecyl sulphate-polyacrylamide gel electrophoresis and transferred to a nitrocellulose membrane. Each membrane was incubated with Tris-buffered saline (pH 7.6, containing 0.05% Tween-20 and 5% non-fat milk). The nitrocellulose membrane was incubated with the primary antibody against p-JNK1/2, JNK1/2, p-p38, p38, p-ERK1/2, ERK1/2, IκBa, NF-κB p65, COX-2, iNOS or β-Actin (Abcam, Cambridge, UK). Immunoreactive bands were detected by incubating with horseradish peroxidase-conjugated secondary antibodies, and visualised using enhanced chemiluminescence reagents (Bio-Rad, Hercules, CA).
(§2) Figure 7. Compound 6n inhibited LPS-induced MAPK-signalling activation in RAW264.7 cells. RAW264.7 cells were co-incubated with 6n (5, 10, 20 μM) and LPS (200 ng/mL) for 30 min. The levels of p38, JNK, ERK1/2 and their phosphorylated forms were analysed using western blot.

[2] = test system: JNK phosphorylation in RAW264.7 cells; assay: Western blot of LPS-induced JNK phosphorylation; format: cell-based, Murine; settings: RAW264.7, 5, 10, 20 μM, LPS 200 ng/mL
Experimental: as §1, §2

[3] = test system: COX-2 expression in RAW264.7 cells; assay: Western blot of LPS-induced COX-2 expression; format: cell-based, Murine; settings: RAW264.7, LPS 200 ng/mL 24 h
Experimental: as §1
(§3) Figure 6. […] Cell viability was evaluated using the MTT assay. NO production was measured using nitrite and nitrate assay. iNOS and COX-2 expression were detected by Western blot. (A) Cell viability assay; (B) Quantitative analysis of NO productions; (C) Quantitative analysis of iNOS expressions, (D) Quantitative analysis of COX-2 expressions. β-actin was used as loading control.

[4] = test system: p38 phosphorylation in RAW264.7 cells; assay: Western blot of LPS-induced p38 phosphorylation; format: cell-based, Murine; settings: RAW264.7, 5, 10, 20 μM, LPS 200 ng/mL
Experimental: as §1, §2

[5] = test system: NF-κB activation in RAW264.7 cells; assay: Western blot of LPS-induced NF-κB activation; format: cell-based, Murine; settings: RAW264.7, 2-h pre-treatment before LPS stimulation
Experimental: as §1
Figure 5. Compound 6n inhibited LPS-induced NF-κB activation in RAW264.7 cells. […] The levels of NF-κB p65, IκB, and their phosphorylated forms were analysed using western blot.

[6] = molecular target: p38α MAPK (Homo sapiens, UniProt Q16539); assay: p38α MAPK inhibition assay in vitro; format: biochemical; settings: triplicate, read-out: IC50 p38p
Experimental: In brief, after mixing the enzyme reagent with the sample, a reaction mixture containing 200 µM biotin-peptide substrate and 600 µM ATP (+100 µCi/mL γ-^32 P-ATP) was added to initiate the reaction. […] Part of the reaction solution was transferred to the well of a streptavidin-coated flash plate, washed in PBS containing 0.01% Tween and sealed. The average value of counts per minute for each group and the IC50 value was calculated.
The average fluorescence values of each well were calculated and recorded as RFU (Relative Fluorescence Unit) blank control (RFU blank), RFU 100% enzyme activity control (RFU enzyme), RFU positive drug control (RFU drug) and RFU test compound (RFU compound). The inhibition rate is calculated according to the following formula. Inhibition rate (%)= (RFU (enzyme) – RFU (compound/drug) […]) /(RFU (enzyme) – RFU (blank)) * 100%
The IC50 value of the test compound was calculated by the concentration-inhibition reaction curve and the assays were performed in triplicate.

[7] = test system: RAW 264.7 cells; assay: Cell viability assay (MTT); format: cell-based, Murine; settings: RAW264.7 cells, concentrations ranging from 5 to 50 µM, 24 h
Experimental: Murine RAW 264.7 macrophages were obtained from the American Type Culture Collection (ATCC, USA). The cells were incubated in DMEM media supplemented with 10% FBS, 100 U/mL penicillin and […] streptomycin at 37 °C with 5% CO2. Cell viability was assessed using the MTT assay. RAW 264.7 cells were inoculated in 96-well plate at a density of 1.0 × 10^5 cells per well. After incubated for 24 h, the cells were treated with various concentrations of the compound. After an additional 24-h incubation, 20 µL of 0.5 mg/mL MTT reagent was added to wells and incubated for another 4 h. After 4 h, cell culture media was removed and DMOS was added into each well, and then, the optical density was measured at 570 nm. The IC50 values were determined by GraphPad Prism 6.

[8] = test system: iNOS expression in RAW264.7 cells; assay: Western blot of LPS-induced iNOS expression; format: cell-based, Murine; settings: RAW264.7, LPS 200 ng/mL 24 h
Experimental: as §1, §3

[9] = molecular target: T1, COX-2 (Homo sapiens, UniProt P35354); assay: COX-2 inhibition assay in vitro (COX Inhibitor Screening Kit, fluorometric)
T1 sequence (P35354 18-604): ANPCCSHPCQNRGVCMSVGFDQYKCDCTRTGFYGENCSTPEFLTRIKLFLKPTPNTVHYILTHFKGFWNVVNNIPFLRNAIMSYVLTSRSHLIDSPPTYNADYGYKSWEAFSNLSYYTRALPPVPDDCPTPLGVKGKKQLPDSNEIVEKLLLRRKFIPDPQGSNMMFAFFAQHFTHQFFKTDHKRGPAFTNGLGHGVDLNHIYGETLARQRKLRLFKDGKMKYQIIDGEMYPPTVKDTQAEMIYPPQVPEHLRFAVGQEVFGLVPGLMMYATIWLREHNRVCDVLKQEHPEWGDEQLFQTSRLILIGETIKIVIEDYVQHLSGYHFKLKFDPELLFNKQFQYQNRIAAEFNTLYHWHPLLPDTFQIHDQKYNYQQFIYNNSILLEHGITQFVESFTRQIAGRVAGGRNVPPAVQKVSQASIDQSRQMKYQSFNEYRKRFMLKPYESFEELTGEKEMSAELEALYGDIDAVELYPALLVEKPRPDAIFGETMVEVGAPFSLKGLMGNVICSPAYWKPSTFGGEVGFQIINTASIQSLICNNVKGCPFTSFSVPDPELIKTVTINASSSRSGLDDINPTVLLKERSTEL
Experimental: Simply, different concentrations of the test compound solution were added to the mixed solution containing COX-1/COX-2 enzyme (10 µL) and Assay Buffer (960 µL, 0.1 M Tris-HCl pH 8.0 containing 5 µM EDTA and 2 µM phenol). […] The IC50 values were calculated as described above.

Chain of p38α MAPK (Q16539 whole entry): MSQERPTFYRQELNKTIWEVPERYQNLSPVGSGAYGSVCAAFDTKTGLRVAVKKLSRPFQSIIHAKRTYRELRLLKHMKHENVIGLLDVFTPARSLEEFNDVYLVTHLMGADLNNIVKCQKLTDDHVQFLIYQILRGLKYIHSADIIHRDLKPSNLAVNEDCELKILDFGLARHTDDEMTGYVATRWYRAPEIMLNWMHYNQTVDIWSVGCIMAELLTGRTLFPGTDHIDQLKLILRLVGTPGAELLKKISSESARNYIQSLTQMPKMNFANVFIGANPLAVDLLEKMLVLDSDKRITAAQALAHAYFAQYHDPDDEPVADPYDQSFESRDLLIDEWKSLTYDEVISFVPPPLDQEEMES

- IC50 [6]: 1950 ± 130 nM
- IC50 [9]: 36 ± 4 nM
- SI (COX-1/COX-2) ([9]; IC50 (COX-1)/IC50 (COX-2)): 349.72
Structure (SMILES): COc1ccccc1CN1CCN(C(=O)c2ccccc2C(C)=O)CC1 [Compound 6n, 1–(2-(4–(2-Methoxybenzyl)piperazine-1-carbonyl)phenyl)ethan-1-one]
- phosphorylation of ERK [1]: no obvious effect
- phosphorylation of JNK [2]: no obvious effect
- LPS-induced expression of COX-2 [3]: dose-dependent decrease
- p38 phosphorylation [4]: significantly lower
- LPS-induced IκB phosphorylation [5]: markedly decreased
- accumulation of NF-κB p65 subunit in the nucleus [5]: lowered
- cytosolic IκB [5]: increased
- cytotoxicity [7]: no significant toxicity
- LPS-induced expression of iNOS [8]: dose-dependent decrease
